Measured values published in PubChem BioAssay AID248 (DTP/NCI, 2004).
Several values for one entry are separate records, joined by “and”; a condition that tells them apart may be missing. Equal values may be shown once. Toxic doses and inconclusive results are not listed.

Test system: L1210 leukemia ip in BDF1 mice, survival T/C
Test: NCI In Vivo Anticancer Drug Screen. Data for tumor model L1210 Leukemia (intraperitoneal) in B6D2F1 (BDF1) mice
Settings: endpoint: mean survival time, higher = longer survival
In short: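 Tumor was transplanted into mice, which were then dosed with test compound or vehicle alone. Survival was recorded for each group, and the treated figure was expressed relative to the control figure.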

[1] = dose: 100.0 mg/kg/injection, schedule: Q01DX001 (ip), vehicle: saline
[2] = dose: 100.0 mg/kg/injection, schedule: Q04DX003 (ip), vehicle: saline
[3] = dose: 200.0 mg/kg/injection, schedule: Q04DX003 (ip), vehicle: saline
[4] = dose: 100.0 mg/kg/injection, schedule: Q04DX003 (ip), vehicle: Klucel (hydroxypropylcellulose) (HPC)
[5] = dose: 200.0 mg/kg/injection, schedule: Q04DX003 (ip), vehicle: Klucel (hydroxypropylcellulose) (HPC)
[6] = dose: 400.0 mg/kg/injection, schedule: Q04DX003 (ip), vehicle: Klucel (hydroxypropylcellulose) (HPC)
[7] = dose: 100.0 mg/kg/injection, schedule: Q01DX009 (ip), vehicle: Klucel (hydroxypropylcellulose) (HPC)
[8] = dose: 200.0 mg/kg/injection, schedule: Q01DX009 (ip), vehicle: Klucel (hydroxypropylcellulose) (HPC)
[9] = dose: 400.0 mg/kg/injection, schedule: Q01DX009 (ip), vehicle: Klucel (hydroxypropylcellulose) (HPC)
[10] = dose: 100.0 mg/kg/injection, schedule: Q04DX003 (ip), vehicle: saline with Tween-80
[11] = dose: 200.0 mg/kg/injection, schedule: Q04DX003 (ip), vehicle: saline with Tween-80
[12] = dose: 400.0 mg/kg/injection, schedule: Q04DX003 (ip), vehicle: saline with Tween-80
[13] = dose: 100.0 mg/kg/injection, schedule: Q01DX001 (ip), vehicle: carboxymethylcellulose (CMC)
[14] = dose: 25.0 mg/kg/injection, schedule: Q01DX009 (ip), vehicle: saline
[15] = dose: 100.0 mg/kg/injection, schedule: Q01DX009 (ip), vehicle: saline
[16] = dose: 200.0 mg/kg/injection, schedule: Q01DX001 (ip), vehicle: saline
[17] = dose: 400.0 mg/kg/injection, schedule: Q01DX001 (ip), vehicle: saline
[18] = dose: 100.0 mg/kg/injection, schedule: Q04DX002 (ip), vehicle: Klucel (hydroxypropylcellulose) (HPC)
[19] = dose: 200.0 mg/kg/injection, schedule: Q04DX002 (ip), vehicle: Klucel (hydroxypropylcellulose) (HPC)
[20] = dose: 400.0 mg/kg/injection, schedule: Q04DX002 (ip), vehicle: Klucel (hydroxypropylcellulose) (HPC)

Structure (SMILES): CCOC(=O)C(C#N)=C(C)C
- T/C (dose: 75.0 mg/kg/injection, schedule: Q01DX001 (ip), vehicle: other): 103 % of control
- T/C [1]: 97 % of control
- T/C [2]: 97 % of control
- T/C [3]: 94 % of control

Structure (SMILES): NC(=O)CC1CCCCC1
- T/C [4]: 97 % of control
- T/C [5]: 105 % of control
- T/C [6]: 103 % of control

Structure (SMILES): Brc1c(-c2ccccc2)cc(-c2ccccc2)cc1-c1ccccc1
- T/C [7]: 93 % of control
- T/C [4]: 91 % of control
- T/C [8]: 93 % of control
- T/C [5]: 93 % of control
- T/C [9]: 96 % of control
- T/C [6]: 91 % of control

Structure (SMILES): COc1ccc2nc3cc(Cl)ccc3c(NCCC[N+](C)(C)CCCCCCCCCC[N+](C)(C)CCCNc3c4ccc(Cl)cc4nc4ccc(OC)cc34)c2c1
- T/C (dose: 0.78 mg/kg/injection, schedule: Q01DX009 (ip), vehicle: saline with Tween-80): 102 % of control
- T/C (dose: 1.56 mg/kg/injection, schedule: Q01DX009 (ip), vehicle: saline with Tween-80): 94 % of control and 100 % of control
- T/C (dose: 3.13 mg/kg/injection, schedule: Q01DX009 (ip), vehicle: saline with Tween-80): 100 % of control and 101 % of control
- T/C (dose: 6.25 mg/kg/injection, schedule: Q01DX009 (ip), vehicle: saline with Tween-80): 106 % of control

Structure (SMILES): NC(=O)Oc1ccc(C2CC(=O)C(C(N)=O)C(=O)C2)cc1 (stereo not drawn)
- T/C (dose: 100.0 mg/kg/injection, schedule: Q01DX001 (ip), vehicle: other): 97 % of control
- T/C [10]: 108 % of control
- T/C (dose: 200.0 mg/kg/injection, schedule: Q01DX001 (ip), vehicle: other): 92 % of control
- T/C [11]: 103 % of control
- T/C (dose: 400.0 mg/kg/injection, schedule: Q01DX001 (ip), vehicle: other): 94 % of control
- T/C [12]: 100 % of control

Structure (SMILES): CS(=O)(=O)c1ccc2c(c1)-c1ccccc1C2=O
- T/C [13]: 96 % of control
- T/C (dose: 200.0 mg/kg/injection, schedule: Q01DX001 (ip), vehicle: carboxymethylcellulose (CMC)): 104 % of control
- T/C (dose: 400.0 mg/kg/injection, schedule: Q01DX001 (ip), vehicle: carboxymethylcellulose (CMC)): 98 % of control

Structure (SMILES): CC(NC1CCCCC1)C(=O)O (stereo not drawn)
- T/C (dose: 12.5 mg/kg/injection, schedule: Q04DX002 (ip), vehicle: Klucel (hydroxypropylcellulose) (HPC)): 93 % of control
- T/C (dose: 25.0 mg/kg/injection, schedule: Q04DX002 (ip), vehicle: Klucel (hydroxypropylcellulose) (HPC)): 96 % of control
- T/C (dose: 50.0 mg/kg/injection, schedule: Q04DX002 (ip), vehicle: Klucel (hydroxypropylcellulose) (HPC)): 89 % of control

Structure (SMILES): CNC(=N)c1ccc(NC(=N)c2ccc(NC(=O)c3ccc(C(=O)Nc4ccc(C(=N)Nc5ccc(C(=N)NC)cc5)cc4)cc3)cc2)cc1
- T/C (dose: 6.25 mg/kg/injection, schedule: Q01DX Z (ip), vehicle: carboxymethylcellulose (CMC)): 124 % of control
- T/C (dose: 100.0 mg/kg/injection, schedule: Q01DX Z (ip), vehicle: carboxymethylcellulose (CMC)): 119 % of control

Structure (SMILES): COc1c(OC2OC(CO)C(O)C(O)C2O)cc2c(c1OC)-c1ccc(SC)c(=O)cc1C(NC(C)=O)CC2 (stereo not drawn)
- T/C (dose: 6.0 mg/kg/injection, schedule: Q01DX009 (ip), vehicle: saline): 97 % of control
- T/C (dose: 12.0 mg/kg/injection, schedule: Q01DX001 (ip), vehicle: saline): 98 % of control
- T/C (dose: 12.0 mg/kg/injection, schedule: Q01DX009 (ip), vehicle: saline): 98 % of control
- T/C (dose: 25.0 mg/kg/injection, schedule: Q01DX001 (ip), vehicle: saline): 100 % of control
- T/C [14]: 101 % of control

Structure (SMILES): [Cl][Sn]([CH2]c1ccccc1)([CH2]c1ccccc1)[CH2]c1ccccc1
- T/C (dose: 0.39 mg/kg/injection, schedule: Q04DX002 (ip), vehicle: saline with Tween-80): 94 % of control
- T/C (dose: 0.78 mg/kg/injection, schedule: Q04DX002 (ip), vehicle: saline with Tween-80): 106 % of control
- T/C (dose: 1.56 mg/kg/injection, schedule: Q04DX002 (ip), vehicle: saline with Tween-80): 108 % of control
- T/C (dose: 3.13 mg/kg/injection, schedule: Q04DX002 (ip), vehicle: saline with Tween-80): 108 % of control

Structure (SMILES): Cc1ccc2[nH]c(=O)cc(C)c2c1
- T/C [13]: 102 % of control
- T/C [10]: 95 % of control
- T/C [11]: 98 % of control
- T/C [12]: 101 % of control

Structure (SMILES): C/C(CCC(=O)O)=N\NC(=O)Cc1cccc2ccccc12
- T/C [4]: 94 % of control
- T/C [5]: 102 % of control
- T/C [6]: 102 % of control

Structure (SMILES): CP1(=O)CC2OC23CCCCC31 (stereo not drawn)
- T/C (dose: 12.5 mg/kg/injection, schedule: Q01DX009 (ip), vehicle: saline): 98 % of control
- T/C [14]: 98 % of control
- T/C (dose: 50.0 mg/kg/injection, schedule: Q01DX009 (ip), vehicle: saline): 102 % of control
- T/C (dose: 100.0 mg/kg/injection, schedule: Q01DX009 (ip), vehicle: other): 109 % of control
- T/C [15]: 89 % of control
- T/C (dose: 200.0 mg/kg/injection, schedule: Q01DX009 (ip), vehicle: other): 114 % of control

Structure (SMILES): CCCCOP(=O)(Cc1ccc(Cl)cc1Cl)OCCCC
- T/C (dose: 100.0 mg/kg/injection, schedule: Q04DX002 (ip), vehicle: saline with Tween-80): 109 % of control
- T/C (dose: 200.0 mg/kg/injection, schedule: Q04DX002 (ip), vehicle: saline with Tween-80): 109 % of control
- T/C (dose: 400.0 mg/kg/injection, schedule: Q04DX002 (ip), vehicle: saline with Tween-80): 98 % of control

Structure (SMILES): O=C(O)/C=C\C(=O)Nc1ccccc1NC(=O)/C=C/C(=O)O
- T/C [15]: 96 % of control
- T/C (dose: 200.0 mg/kg/injection, schedule: Q01DX009 (ip), vehicle: saline): 94 % of control
- T/C (dose: 400.0 mg/kg/injection, schedule: Q01DX009 (ip), vehicle: saline): 91 % of control

Structure (SMILES): COc1cc(C(O)C(=O)O)c([N+](=O)[O-])cc1OC (stereo not drawn)
- T/C [1]: 96 % of control
- T/C [16]: 91 % of control
- T/C [17]: 91 % of control

Structure (SMILES): CC1CN1CCCNC(=O)C(=O)NCCCN1CC1C (stereo not drawn)
- T/C (dose: 12.5 mg/kg/injection, schedule: Q04DX003 (ip), vehicle: saline): 110 % of control
- T/C (dose: 50.0 mg/kg/injection, schedule: Q04DX003 (ip), vehicle: saline): 168 % of control

Structure (SMILES): CCOP(=O)(SCC)N(CC)CC (stereo not drawn)
- T/C (dose: 5.0 mg/kg/injection, schedule: Q01DX001 (ip), vehicle: saline): 108 % of control
- T/C (dose: 10.0 mg/kg/injection, schedule: Q01DX001 (ip), vehicle: saline): 104 % of control
- T/C (dose: 20.0 mg/kg/injection, schedule: Q01DX001 (ip), vehicle: saline): 104 % of control
- T/C (dose: 40.0 mg/kg/injection, schedule: Q01DX001 (ip), vehicle: saline): 115 % of control
- T/C (dose: 80.0 mg/kg/injection, schedule: Q01DX001 (ip), vehicle: saline): 106 % of control

Structure (SMILES): c1ccc(C2OC2c2ccccc2)cc1 (stereo not drawn)
- T/C [7]: 98 % of control
- T/C [18]: 107 % of control
- T/C [4]: 110 % of control
- T/C [8]: 102 % of control
- T/C [19]: 110 % of control
- T/C [5]: 100 % of control
- T/C [9]: 104 % of control
- T/C [20]: 93 % of control
- T/C [6]: 109 % of control

Structure (SMILES): COc1ccc(C(=O)Nc2ccc([N+](=O)[O-])cc2O)cc1
- T/C [4]: 103 % of control
- T/C [5]: 104 % of control
- T/C [6]: 97 % of control

Structure (SMILES): O=C(Nc1cccc2ccccc12)OC/C=C/c1ccccc1
- T/C [18]: 119 % of control
- T/C [19]: 93 % of control
- T/C [20]: 104 % of control

Structure (SMILES): C(C#Cc1ccccc1)#Cc1ccccc1
- T/C [2]: 94 % of control
- T/C [3]: 100 % of control
- T/C (dose: 400.0 mg/kg/injection, schedule: Q04DX003 (ip), vehicle: saline): 97 % of control

Structure (SMILES): COC(=O)C1c2ccoc2CC2C1C(O)C(O)C1C(C)(C)CCCC21C (stereo not drawn)
- T/C (dose: 50.0 mg/kg/injection, schedule: Q04DX003 (ip), vehicle: saline with Tween-80): 103 % of control
- T/C [10]: 95 % of control
- T/C [11]: 95 % of control

Structure (SMILES): O=C(NC(=S)Nc1ccc(S(=O)(=O)c2ccc(NC(=S)NC(=O)c3ccccc3)cc2)cc1)c1ccccc1
- T/C [7]: 102 % of control
- T/C [18]: 94 % of control
- T/C [8]: 94 % of control
- T/C [19]: 94 % of control
- T/C [9]: 91 % of control
- T/C [20]: 102 % of control

Structure (SMILES): O=C(COC(=O)c1ccccc1C(=O)c1ccccc1O)c1ccc(-c2ccccc2)cc1
- T/C [16]: 91 % of control
- T/C [17]: 91 % of control
